This is an account of results in publication PMC6253839, “Screening of Agelasine D and Analogs for Inhibitory Activity against Pathogenic Protozoa; Identification of Hits for Visceral Leishmaniasis and Chagas Disease” (Molecules, 2009).

SMILES strings stand for the structures. “Also recorded” adds a separate entry of the source. Some results are limits rather than exact numbers.

In series [1] the test system is P. falciparum GHA-strain (chloroquine-suceptible). Briefly: Antiplasmodial activity, Malstat method. The following applies: Plasmodium falciparum; GHA-strain, 72 h; TDR hit criterion <0.2 μg/mL; read-out: P. falciparum IC50. In kind it is cell-based, Plasmodium falciparum.
For series [2], the system named is Leishmania infantum amastigotes (MHOM/ET 67). Briefly: Antileishmanial activity, amastigotes in primary peritoneal mouse macrophages. The series is classed as cell-based. On the procedure: Leishmania infantum amastigotes (MHOM/ET 67) were collected from an infected donor hamster and used to infect primary peritoneal mouse macrophages. To determine in vitro antileishmanial activity, 3×10^4 macrophages were seeded in each well of a 96-well plate. After 48 h outgrowth, 5×10^4 amastigotes/well were added and incubated for 2 h at 37 °C. […] Parasite burdens were determined microscopically after Giemsa staining and expressed as a percentage of the blank controls without compound.

For series [3], the system named is T. cruzi Tulahuen CL2 strain (nifurtimox-sensitive). Briefly: Antitrypanosomal activity, T. cruzi on MRC-5 cells, β-galactosidase readout. The series is classed as cell-based, Trypanosoma cruzi. The protocol:
To determine in vitro anti-trypanosomal activity, 4×10^3 MRC-5 cells and 4×10^4 parasites were added to each well of test plate with compound. […] The color reaction was read at 540 nm and absorbance values were expressed as a percentage of the blank controls.

The nature of series [4]: Cytotoxicity assay, resazurin. The series is classed as cell-based. The note with it: human, MRC-5 SV2 cells (human fetal lung fibroblasts). On the procedure:
Cell viability was determined after addition of resazurin.

Series [5] concerns Staphyllococcus aureus. The arrangement: method as in PMID 17442577. The following applies: previous studies; cited from earlier work.
Series [6] relates to Escherichia coli. The arrangement: method as in PMID 17442577. The note with it: previous studies; cited from earlier work.
In series [7] the test system is Mycobacterium tuberculosis. The following applies: previous studies; cited from earlier work.

As a reminder, the IC50 is the concentration at which inhibition is half-maximal.

`CC(C)=CCC/C(C)=C/CC/C(C)=C/CC/C(C)=C/Cn1cc[n+](C)c1` [Compound 5]: the 50% inhibitory concentration (IC50) was 0.97 µg/mL in series [1]; less than 0.11 µg/mL in series [2] (Leishmania infantum, Macrophage, intracellular amastigotes, 120 h, TDR hit criterion <0.5 μg/mL, read-out: L. infantum IC50); less than 0.11 µg/mL in series [3] (Trypanosoma cruzi, TULAHUEN, MRC5, 168 h, read-out: T. cruzi IC50). In series [2] (criterion IC50 <0.5 μg/mL and SI >20), the “hit for leishmaniasis according to TDR” value is on record as “classifies as a hit; also recorded: identified as hits”. Moreover, in series [3], the “hit for Chagas disease according to TDR” value is “classified as hits; also recorded: identified as hits”. Besides, the half-inhibitory concentration (IC50) at 72 h in series [4] came to 7.6 µg/mL. Moreover, the “antibacterial activity against S. aureus, in words” value in series [5] is “reasonably active”. Further, the “antibacterial activity against E. coli, in words” value in series [6] is reported as “not against”. In addition, the “antibacterial activity against M. tuberculosis, in words” value in series [7] is recorded as “not against”.
